The values below come from US20240025891A1 (Celgene Corporation, priority 2020, published 2024).

Molecules are shown by their SMILES. Where only a bound is given, the exact number is not on record here.

This assay relates to Onchocerca gutturosa adult male worms. Briefly: Onchocerciasis in vitro screening model Onchocerca gutturosa (worm motility score and MTT/formazan colorimetry). The following applies: Onchocerca gutturosa, read-out: O. gutt Act class.

For `Cc1ccnc(Nc2nc(-c3ncccn3)cs2)c1` [Example 107, N-(4-methylpyridin-2-yl)-4-(pyrimidin-2-yl)thiazol-2-amine], the IC50 is 0.5 to 5 µM.
The result for `N#Cc1sc(Nc2cc(C(F)(F)F)ccn2)nc1-c1ccccn1` [Example 189, 4-(pyridin-2-yl)-2-(4-(trifluoromethyl)pyridin-2-ylamino) thiazole-5-carbonitrile] reads 0.5 to 5 µM.
Next, `c1ccc(Nc2nc(-c3ccccn3)co2)nc1` [Example 232, N,4-di (pyridin-2-yl)oxazol-2-amine]: below 0.2 µM.
Consider `CCOc1ccc(-c2csc(Nc3ccc(C)cn3)n2)nc1` [Example 81, 4-(5-ethoxypyridin-2-yl)-N-(5-methylpyridin-2-yl)thiazol-2-amine], for which the IC50 was below 0.2 µM.
The result for `Cc1cccnc1Nc1cc(-c2ccc(OC3CCOCC3)cn2)n[nH]1` [Example 237, 3-methyl-N-(3-(5-(tetrahydro-2H-pyran-4-yloxy)pyridin-2-yl)-1H-pyrazol-5-yl)pyridin-2-amine] reads 0.5 to 5 µM; that for `CCOc1cccnc1-c1csc(Nc2ncccc2C)n1` [Example 77, 4-(3-ethoxypyridin-2-yl)-N-(3-methylpyridin-2-yl)thiazol-2-amine], below 0.2 µM; that for `O=C(NCC(F)(F)F)C1CCCN(c2ccc(Nc3nc(-c4ccccn4)cs3)nc2)C1` (centres unmarked) [Example 160, 1-(6-(4-(pyridin-2-yl)thiazol-2-ylamino)pyridin-3-yl)-N-(2,2,2-trifluoroethyl) piperidine-3-carboxamide], below 0.2 µM.
The result for `Cc1cc(C(F)(F)F)cnc1Nc1nc(-c2cc3c(cn2)N(C)CC3)cs1` [Example 97, 4-(1-methyl-2,3-dihydro-1H-pyrrolo[2,3-c]pyridin-5-yl)-N-(3-methyl-5-(trifluoromethyl)pyridin-2-yl)thiazol-2-amine] reads below 0.2 µM.
Next, `CCc1ccc(Nc2nc(-c3ccccn3)cs2)nc1` [Example 123, N-(5-ethylpyridin-2-yl)-4-(pyridin-2-yl)thiazol-2-amine]: below 0.2 µM; `CCOc1ccc(-c2csc(Nc3ncc(C)cc3C)n2)nc1` [Example 88, N-(3,5-dimethylpyridin-2-yl)-4-(5-ethoxypyridin-2-yl)thiazol-2-amine]: below 0.2 µM; `CCc1sc(Nc2cc(C)ccn2)nc1-c1ccccn1` [Example 184, 5-ethyl-N-(4-methylpyridin-2-yl)-4-(pyridin-2-yl)thiazol-2-amine]: below 0.2 µM.
Take `COc1ccc(-c2cnc(Nc3cc(OC(C)C)ccn3)o2)nc1` [Example 228, N-(4-isopropoxy-pyridin-2-yl)-5-(5-methoxypyridin-2-yl)oxazol-2-amine]: the IC50 was in the range of 0.5 to 5 µM.
The result for `COc1ccc(-c2ncc(Nc3cc(OC(C)C)ccn3)s2)nc1` [Example 113, N-(4-isopropoxypyridin-2-yl)-2-(5-methoxypyridin-2-yl)thiazol-5-amine] reads 0.5 to 5 µM; that for `FC(F)(F)c1ccnc(Nc2nc(-c3ccccn3)c(CN3CCCC3)s2)c1` [Example 197, 4-(pyridin-2-yl)-5-(pyrrolidin-1-ylmethyl)-N-(4-(trifluoromethyl)pyridin-2-yl)thiazol-2-amine], 0.5 to 5 µM; that for `Cc1ccnc(Nc2nc(-c3ncccc3-c3ccccc3)cs2)c1` [Example 103, N-(4-methylpyridin-2-yl)-4-(3-phenylpyridin-2-yl)thiazol-2-amine], below 0.2 µM.
Next, `Cc1ccnc(Nc2ncc(-c3ncccc3C)o2)c1` [Example 230, 5-(3-methylpyridin-2-yl)-N-(4-methylpyridin-2-yl)oxazol-2-amine]: 0.5 to 5 µM.
The result for `c1ccc(-c2csc(Nc3cc4[nH]ccc4cn3)n2)nc1` [Example 136, 4-(pyridin-2-yl)-N-(1H-pyrrolo [3,2-c]pyridin-6-yl)thiazol-2-amine] reads below 0.2 µM.
In the case of `COc1ccnc(Nc2nc(-c3ccccn3)cs2)c1` [Example 121, N-(4-methoxypyridin-2-yl)-4-(pyridin-2-yl)thiazol-2-amine], the IC50 lay within 0.2 to 0.5 µM.
The result for `FC(F)(F)c1ccnc(Nc2nc(-c3ccc(OC4CCOCC4)cn3)cs2)c1` [Example 104, 4-(5-(tetrahydro-2H-pyran-4-yloxy)pyridin-2-yl)-N-(4-(trifluoromethyl)pyridin-2-yl)thiazol-2-amine] reads below 0.2 µM; that for `CC(=O)N(C)c1cc(C(F)(F)F)cnc1Nc1nc(-c2ccccn2)cs1` [Example 212, N-methyl-N-(2-(4-(pyridin-2-yl)thiazol-2-ylamino)-5-(trifluoro-methyl)pyridin-3-yl) acetamide], below 0.2 µM.
Next, `CCCCc1ccnc(Nc2nc(-c3ccccn3)cs2)c1` [Example 167, N-(4-butylpyridin-2-yl)-4-(pyridin-2-yl)thiazol-2-amine]: below 0.2 µM; `CSc1ccc(-c2csc(Nc3ncccc3C)n2)nc1` [Example 80, N-(3-methylpyridin-2-yl)-4-(5-(methylthio)pyridin-2-yl)thiazol-2-amine]: below 0.2 µM; `O=C(NC1CC(F)(F)C1)c1ccnc(Nc2ncc(-c3ccccn3)s2)c1` [Example 179, N-(3,3-difluoro-cyclobutyl)-2-(5-(pyridin-2-yl)thiazol-2-ylamino) isonicotinamide]: below 0.2 µM.
The result for `Cc1ccnc(Nc2nc(-c3cccc(C)n3)cs2)c1` [Example 2] reads 0.2 to 0.5 µM; that for `O=C(NC1CCC(F)(F)CC1)c1ccnc(Nc2nc(-c3ccccn3)cs2)c1` [Example 151, N-(4,4-difluoro-cyclohexyl)-2-(4-(pyridin-2-yl)thiazol-2-ylamino) isonicotinamide], below 0.2 µM.
Take `COc1cccnc1-c1csc(Nc2cc(C)ccn2)n1` [Example 7]: the IC50 lay in the range of 0.5 to 5 µM.
The result for `CCCc1ccnc(Nc2nc(-c3ccccn3)cs2)c1` [Example 172, N-(4-propylpyridin-2-yl)-4-(pyridin-2-yl)thiazol-2-amine] reads 0.2 to 0.5 µM; that for `C[C@@H]1CN(Cc2sc(Nc3cc(C(F)(F)F)ccn3)nc2-c2ccccn2)C[C@H](C)N1` [Example 196, 5-(((3R,5S)-3,5-dimethyl-piperazin-1-yl)methyl)-4-(pyridin-2-yl)-N-(4-(trifluoromethyl)pyridin-2-yl)thiazol-2-amine], below 0.2 µM.
The result for `c1ccc(-c2cccnc2Nc2nc(-c3ccccn3)cs2)cc1` [Example 125, N-(3-phenylpyridin-2-yl)-4-(pyridin-2-yl)thiazol-2-amine] reads 0.5 to 5 µM; that for `C[C@@H]1CN(Cc2sc(Nc3cc(C(=O)NCC(F)(F)F)ccn3)nc2-c2ccccn2)C[C@H](C)O1` [Example 188, 2-(5-(((2S,6R)-2,6-dimethyl-morpholino)methyl)-4-(pyridin-2-yl)thiazol-2-ylamino)-N-(2,2,2-trifluoroethyl) isonicotinamide], below 0.2 µM.
In the case of `COc1ccc(-c2cc(Nc3cc(OC(C)C)ccn3)[nH]n2)nc1` [Example 236, 4-isopropoxy-N-(3-(5-methoxypyridin-2-yl)-1H-pyrazol-5-yl)pyridin-2-amine], the IC50 was in the range of 0.5 to 5 µM.
For the compound `c1ccc(-c2csc(Nc3cc(-c4cnccn4)ccn3)n2)nc1` [Example 173, N-(4-(pyrazin-2-yl)pyridin-2-yl)-4-(pyridin-2-yl)thiazol-2-amine], the IC50 was below 0.2 µM.
